{"source": "PubChem BioAssay (NCI)", "assay_in_all_cases": "NCI-60 cell line screen, 384-well format", "key": {"[1]": {"system": "786-0 renal"}, "[2]": {"system": "A498 renal"}, "[3]": {"system": "A549 NSCLC"}, "[4]": {"system": "ACHN renal"}, "[5]": {"system": "BT-549 breast"}, "[6]": {"system": "CAKI-1 renal"}, "[7]": {"system": "CCRF-CEM leukemia"}, "[8]": {"system": "COLO 205 colon"}, "[9]": {"system": "DU-145 prostate"}, "[10]": {"system": "EKVX NSCLC"}, "[11]": {"system": "HCC-2998 colon"}, "[12]": {"system": "HCT-15 colon"}, "[13]": {"system": "HL-60(TB) leukemia"}, "[14]": {"system": "HOP-62 NSCLC"}, "[15]": {"system": "HOP-92 NSCLC"}, "[16]": {"system": "HS 578T breast"}, "[17]": {"system": "HT29 colon"}, "[18]": {"system": "IGROV1 ovarian"}, "[19]": {"system": "KM12 colon"}, "[20]": {"system": "M14 melanoma"}, "[21]": {"system": "MALME-3M melanoma"}, "[22]": {"system": "MCF7 breast"}, "[23]": {"system": "MDA-MB-231 breast"}, "[24]": {"system": "MDA-MB-435 melanoma"}, "[25]": {"system": "MDA-MB-468 breast"}, "[26]": {"system": "MOLT-4 leukemia"}, "[27]": {"system": "NCI-H226 lung"}, "[28]": {"system": "NCI-H23 lung"}}, "note": "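Abbreviation: GI50, concentration required for 50% inhibition of growth. TGI marks complete inhibition of growth.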"}
{"molecule": "CN(C)CCNC(=O)c1cccc2cc3ccccc3nc12", "values": [{"measurement": "GI50", "setting": "[1]", "result": 1.07, "unit": "µM"}, {"measurement": "TGI", "setting": "[1]", "result": 3.04, "unit": "µM"}, {"measurement": "GI50", "setting": "[2]", "result": 0.539, "unit": "µM"}, {"measurement": "TGI", "setting": "[2]", "result": 2, "unit": "µM"}, {"measurement": "GI50", "setting": "[3]", "result": 0.619, "unit": "µM"}, {"measurement": "TGI", "setting": "[3]", "result": 1.9, "unit": "µM"}, {"measurement": "GI50", "setting": "[4]", "result": 0.961, "unit": "µM"}, {"measurement": "TGI", "setting": "[4]", "result": 2.28, "unit": "µM"}, {"measurement": "GI50", "setting": "[5]", "result": 0.532, "unit": "µM"}, {"measurement": "TGI", "setting": "[5]", "result": 1.68, "unit": "µM"}, {"measurement": "GI50", "setting": "[6]", "result": 1.02, "unit": "µM"}, {"measurement": "TGI", "setting": "[6]", "result": 2.49, "unit": "µM"}, {"measurement": "GI50", "setting": "[7]", "result": 0.246, "unit": "µM"}, {"measurement": "TGI", "setting": "[7]", "result": 0.673, "unit": "µM"}, {"measurement": "GI50", "setting": "[8]", "result": 0.336, "unit": "µM"}, {"measurement": "TGI", "setting": "[8]", "result": 0.651, "unit": "µM"}, {"measurement": "GI50", "setting": "[9]", "result": 1.52, "unit": "µM"}, {"measurement": "TGI", "setting": "[9]", "result": 3.12, "unit": "µM"}, {"measurement": "GI50", "setting": "[10]", "result": 1.74, "unit": "µM"}, {"measurement": "TGI", "setting": "[10]", "result": 3.67, "unit": "µM"}, {"measurement": "GI50", "setting": "[11]", "result": 1.46, "unit": "µM"}, {"measurement": "TGI", "setting": "[11]", "result": 2.86, "unit": "µM"}, {"measurement": "GI50", "setting": "[12]", "result": 0.628, "unit": "µM"}, {"measurement": "TGI", "setting": "[12]", "result": 2.02, "unit": "µM"}, {"measurement": "GI50", "setting": "[13]", "result": 0.252, "unit": "µM"}, {"measurement": "TGI", "setting": "[13]", "result": 0.462, "unit": "µM"}, {"measurement": "GI50", "setting": "[14]", "result": 0.494, "unit": "µM"}, {"measurement": "TGI", "setting": "[14]", "result": 1.85, "unit": "µM"}, {"measurement": "GI50", "setting": "[15]", "result": 0.688, "unit": "µM"}, {"measurement": "TGI", "setting": "[15]", "result": 2.15, "unit": "µM"}, {"measurement": "GI50", "setting": "[16]", "result": 0.287, "unit": "µM"}, {"measurement": "TGI", "setting": "[16]", "result": 0.883, "unit": "µM"}, {"measurement": "GI50", "setting": "[17]", "result": 0.996, "unit": "µM"}, {"measurement": "TGI", "setting": "[17]", "result": 2.21, "unit": "µM"}, {"measurement": "GI50", "setting": "[18]", "result": 1.14, "unit": "µM"}, {"measurement": "TGI", "setting": "[18]", "result": 2.46, "unit": "µM"}, {"measurement": "GI50", "setting": "[19]", "result": 0.862, "unit": "µM"}, {"measurement": "TGI", "setting": "[19]", "result": 2.44, "unit": "µM"}, {"measurement": "GI50", "setting": "[20]", "result": 1.14, "unit": "µM"}, {"measurement": "TGI", "setting": "[20]", "result": 2.38, "unit": "µM"}, {"measurement": "GI50", "setting": "[21]", "result": 0.932, "unit": "µM"}, {"measurement": "TGI", "setting": "[21]", "result": 2.11, "unit": "µM"}, {"measurement": "GI50", "setting": "[22]", "result": 1.12, "unit": "µM"}, {"measurement": "TGI", "setting": "[22]", "result": 4.17, "unit": "µM"}, {"measurement": "GI50", "setting": "[23]", "result": 0.958, "unit": "µM"}, {"measurement": "TGI", "setting": "[23]", "result": 2.22, "unit": "µM"}, {"measurement": "GI50", "setting": "[24]", "result": 1.64, "unit": "µM"}, {"measurement": "TGI", "setting": "[24]", "result": 3.23, "unit": "µM"}, {"measurement": "GI50", "setting": "[25]", "result": 0.411, "unit": "µM"}, {"measurement": "TGI", "setting": "[25]", "result": 0.791, "unit": "µM"}, {"measurement": "GI50", "setting": "[26]", "result": 0.169, "unit": "µM"}, {"measurement": "TGI", "setting": "[26]", "result": 0.31, "unit": "µM"}, {"measurement": "GI50", "setting": "[27]", "result": 0.898, "unit": "µM"}, {"measurement": "TGI", "setting": "[27]", "result": 2.44, "unit": "µM"}, {"measurement": "GI50", "setting": "[28]", "result": 1.26, "unit": "µM"}, {"measurement": "TGI", "setting": "[28]", "result": 2.57, "unit": "µM"}]}
